Measurements: patent US20220132846A1, “1-PYRIDYL-PYRAZOLYL AMIDE COMPOUNDS AND PREPARATION AND USES THEREOF” (HUNAN RESEARCH INSTITUTE OF CHEMICAL INDUSTRY CO., LTD., priority 2019, published 2022)
Like-named read-outs stand apart in the source and are kept apart here.

Legend:
Assay type in all cases: in vivo
[1] = test system: Armyworm (Mythimna separata (Walker)); experiment: Test against armyworm, Potter tower method; conditions: for mortality at 12.5 µg/mL / mortality at 50 µg/mL / mortality at 500 µg/mL: Mythimna separata, read-out: Activity (mortality) level against armyworm
Description: Potter tower method: the test compound was dissolved in an appropriate solvent such as N,N-dimethylformamide, and then diluted with 0.2% aqueous solution of Tween 80 to the desired concentration, Those without the test compounds were set as blank controls. The fresh and tender corn leaves were taken and cut into fragments of basically the same size, then put into a Petri dish (diameter 90 mm) padded with filter paper in advance. Ten third-instar larvae of test insects were transferred into the dish and then placed under the Potter spray tower for being sprayed, each concentration treatment was sprayed at the amount of 1 mL and replicated 3 times. The dish was covered and then placed in a chamber for culture and observed regularly, after 72 hours, the dead insects was investigated and recorded and the mean mortality was calculated. […]

[2] = test system: Spodoptera litura (Fabricius); experiment: Test against Spodoptera litura, leaf disc dip; conditions: second-instar larvae, after 72 hours
Description: (§1) The test compound was dissolved in an appropriate solvent such as N,N-dimethylformamide, and then diluted with 0.2% aqueous solution of Tween 80 to the desired concentration, Those without the test compounds were set as blank controls, the treatments were replicated 3 times. The cabbage leaves were perforated to get 18 mm diameter leaf discs by a hole puncher, 5 leaf discs were dipped in the test solution for 10 seconds and then put into a Petri dish (diameter 90 mm) padded with moisturizing filter paper, after air-drying, the leaf discs were infested with no less than ten second-instar larvae of test insects which were starved for 4 hours, and then the dish was covered and placed in a chamber for culture. After 72 hours, the number of dead insects was investigated, the mortality was calculated, and the regression equation, correlation coefficient (r) and the median lethal concentration (LC50) were obtained using Probit analysis method.

[3] = test system: Diamondback moth (Plutella xylostella (Linnaeus)); experiment: Test against diamondback moth, leaf disc dip; conditions: second-instar larvae, after 72 hours
Description: as §1

Aphis fabae = experiment: Test against aphid, leaf dip method (Aphis fabae); conditions: foliar, read-out: Activity (mortality) level against Aphis fabae; for mortality at 12.5 µg/mL: 12.5 mg/L; for mortality at 200 µg/mL: 200 mg/L
Description: For evaluating the activity of the compounds of this invention against Homoptera pests, Aphis fabae, wheat aphids, etc. were selected as the test insects, and the activity of the compounds of this invention against aphids was measured by leaf dip method indoors.
Leaf dip method (Aphis fabae): the test compound was dissolved in an appropriate solvent such as N,N-dimethylformamide, and then diluted with 0.2% aqueous solution of Tween 80 to the desired concentration, Those without the test compounds were set as blank controls, the treatments were replicated 3 times. Horsebean seedlings with no less than twenty 3-day-old Aphis fabae per plant was cut from the stem, 5 horsebean seedlings with the insects were dipped in the test solution for 5 seconds, then inserted into a sponge filled with water after sucked dry using filter paper, then covered with a glass tube and placed in a chamber for culture. After 24 hours, the number of living and dead insects were investigated and the results were averaged. […]

[4] = 12.5 mg/L, third-instar larvae, after 72 hours
[5] = 50 mg/L, third-instar larvae, after 72 hours
[6] = 500 mg/L, third-instar larvae, after 72 hours

Compound	mortality at 12.5 µg/mL [1, 4] [%]	mortality at 50 µg/mL [1, 5] [%]	mortality at 500 µg/mL [1, 6] [%]	Activity against armyworm, further screening (in words) ([1]; compared with chlorantraniliprole (D1))	Activity against Spodoptera litura (in words) [2]	Activity against diamondback moth (in words) [3]	mortality at 12.5 µg/mL (Aphis fabae; after 24 hours) [%]	mortality at 50 µg/mL (Aphis fabae; 50 mg/L, after 24 hours) [%]	mortality at 200 µg/mL (Aphis fabae; after 24 hours) [%]	mortality at 500 µg/mL (Aphis fabae; 500 mg/L, after 24 hours) [%]	Activity against armyworm ([1]; 1.25 mg/L)	mortality at 12.5 µg/mL ([1]; 72 h) [%]	mortality at 50 µg/mL ([1]; 72 h) [%]	mortality at 500 µg/mL ([1]; 72 h) [%]	mortality at 50 µg/mL (Aphis fabae; 24 h) [%]	mortality at 500 µg/mL (Aphis fabae; 24 h) [%]
CCN(C)C(=O)c1cc(Cl)cc(Br)c1N(C)C(=O)c1cc(Br)nn1-c1ncccc1Cl [Compound 32, N-[2-bromo-4-chloro-6-[(methyl(ethyl)amino)carbonyl]phenyl]-N-methyl-1-(3-chloro-2-pyridinyl)-3-bromo-1H-pyrazole-5-carboxamide]	90 to 100	90 to 100	90 to 100	excellent activity	high activity at very low concentration	high activity at very low concentration	90 to 100	90 to 100	90 to 100	90 to 100	–	–	–	–	–	–
CNC(=O)c1cc(Cl)cc(C)c1NC(=O)c1cc(Br)nn1-c1ncccc1Cl [Compound D1, chlorantraniliprole, reference compound]	–	–	–	–	high activity at very low concentration	high activity at very low concentration	–	–	–	–	less than 50%	90 to 100	90 to 100	90 to 100	0 to 50	90 to 100
CCN(CC)C(=S)c1cc(Cl)cc(Cl)c1N(C)C(=O)c1cc(Br)nn1-c1ncccc1Cl [Compound 23, N-[2,4-dichloro-6-[(diethylamino)thioxomethyl]phenyl]-N-methyl-1-(3-chloro-2-pyridinyl)-3-bromo-1H-pyrazole-5-carboxamide]	90 to 100	90 to 100	90 to 100	–	–	–	–	–	90 to 100	90 to 100	–	–	–	–	–	–
CN(C(=O)c1cc(Br)nn1-c1ncccc1Cl)c1c(Br)cc(Cl)cc1C(=O)N(C)C(C)(C)C [Compound 36, N-[2-bromo-4-chloro-6-[(methyl(tert-butyl)amino)carbonyl]phenyl]-N-methyl-1-(3-chloro-2-pyridinyl)-3-bromo-1H-pyrazole-5-carboxamide]	–	90 to 100	90 to 100	–	–	–	–	90 to 100	90 to 100	90 to 100	–	–	–	–	–	–
CCN(C)C(=O)c1cc(Cl)cc(Br)c1N(CC)C(=O)c1cc(Br)nn1-c1ncccc1Cl [Compound 39, N-[2-bromo-4-chloro-6-[(methyl(ethyl)amino)carbonyl]phenyl]-N-ethyl-1-(3-chloro-2-pyridinyl)-3-bromo-1H-pyrazole-5-carboxamide]	–	90 to 100	90 to 100	–	–	–	90 to 100	90 to 100	90 to 100	90 to 100	–	–	–	–	–	–
CN(C(=O)c1cc(Br)nn1-c1ncccc1Cl)c1c(Br)cc(Cl)cc1C(=O)NC1CC1 [Compound 29, N-[2-bromo-4-chloro-6-[(cyclopropylamino)carbonyl]phenyl]-N-methyl-1-(3-chloro-2-pyridinyl)-3-bromo-1H-pyrazole-5-carboxamide]	90 to 100	90 to 100	90 to 100	–	–	–	–	–	90 to 100	90 to 100	–	–	–	–	–	–
CCCNC(=O)c1cc(Cl)cc(Br)c1N(C)C(=O)c1cc(Br)nn1-c1ncccc1Cl [Compound 27, N-[2-bromo-4-chloro-6-[(propylamino)carbonyl]phenyl]-N-methyl-1-(3-chloro-2-pyridinyl)-3-bromo-1H-pyrazole-5-carboxamide]	–	90 to 100	90 to 100	–	–	–	90 to 100	90 to 100	90 to 100	90 to 100	–	–	–	–	–	–
